Data published in patent publication US6566047B1, “Method for identifying neurite-growth promoting agents” (The Regents of the University of Colorado, priority 1998, dated 2003).
Read-outs that look alike come from different tables or passages of the source.

Assays:
[1] = system: growth cones in cultures of rat cerebral cortex; experiment: Growth cone collapse assay in cortical neuron culture; type: cell-based; conditions: thrombin 100 nM
Summary of the method: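 Cortical explants from E18 Sprague-Dawley rats were grown 2–3 days on poly-D-lysine, serum-free after 24 h, then pre-incubated 30–60 min at 37 °C with inhibitor or vehicle before repellent factor challenge for 1–30 min. Collapse was graded in randomly selected growth cones in aldehyde-fixed cultures (fixed after 7 min) or imaged live.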

cPLA2 [2] = experiment: PLA2 activity (14C-AA release) in MAT-Lu cells; type: biochemical, rat; conditions: thrombin 200 nM
Description: MAT-Lu cells were plated at a density of 0.5×10^6 cells per flask (T-75) and grown as detailed above to approximately 25% confluency. On the day before the experiments, the serum level in the medium was dropped to 1%. Cells were fed with fresh 1% serum-medium 4 hrs prior to harvest. For harvesting, cells were rinsed with Ca^++,Mg^++-free HBSS, covered with 2 ml cold Ca^++-free modified Krebs buffer (220 mM sucrose, 50 mM NaCl, 5 mM KCl, 22 mM HEPES, 10 mM glucose. 1.2 mM NaH2PO4 and 1.2 mM MgCl2, pH 7.3), and placed on ice. Cells were scraped off, pelleted for 5 min at 200 rpm and re-suspended in a minimal volume of Krebs buffer. Aliquots were used to determine protein concentration (Biorad Assay) and phopholipase activity. To measure PLA2 activity 10-12 μg of cell protein was incubated with or without thrombin for 10 min on ice, ^14C-AA-labeled phospholipid substrate (7 μM. 40-60 mCi/mmol) was added, and the mixture was transferred to 37° for 20 min. The reaction was stopped by adding cold cliloroform/methanol (1:2 v/v). Lipid extraction followed by thin-layer chromatography (Negre-Aminou et al., J Neurochem 67:2599-2608 (1996)) isolated the reaction product (identified by co-migration with AA standard), which was then scraped off the plates and analyzed in a scintillation spectrometer (Beckman). In some experiments, especially those involving ^14C-AA-phosphatidylinositol as substrate, the diacylglycerol-containing band (identified by co-migration of standard) also was scraped and counted in order to measure phospholipase C (PLC) activity.

MAT-Lu cells = experiment: Pseudopod morphometry (pseudopod length assay), MAT-Lu cells; type: cell-based, rat
Summary of the method: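 Cells plated at 1×10^4 per 35-mm dish overnight, shifted to serum-free medium 1 h, then exposed to thrombin, AA or HETEs in medium or by local micropipette puff. Phase-contrast images over time at heated stage; length measured from nucleus centre to process tip, analysed by gamma regression and non-parametric tests.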

cPLA2 [3] = experiment: cPLA2 activation in AT-2 cells; type: biochemical, rat
Description: FIG. 9. Thrombin activation of cPLA2 in AT-2 cells incubated with either ^14C-AA-PI, -PC or -PE as substrate, for 10 min at 37° C. Released AA and diacylglycerol were isolated and counted.

phospholipase C = conditions: thrombin stimulation as for PLA2
Description: MAT-Lu cells were plated at a density of 0.5×10^6 cells per flask (T-75) and grown as detailed above to approximately 25% confluency. On the day before the experiments, the serum level in the medium was dropped to 1%. Cells were fed with fresh 1% serum-medium 4 hrs prior to harvest. For harvesting, cells were rinsed with Ca^++,Mg^++-free HBSS, covered with 2 ml cold Ca^++-free modified Krebs buffer (220 mM sucrose, 50 mM NaCl, 5 mM KCl, 22 mM HEPES, 10 mM glucose. 1.2 mM NaH2PO4 and 1.2 mM MgCl2, pH 7.3), and placed on ice. Cells were scraped off, pelleted for 5 min at 200 rpm and re-suspended in a minimal volume of Krebs buffer. Aliquots were used to determine protein concentration (Biorad Assay) and phopholipase activity. […] Lipid extraction followed by thin-layer chromatography (Negre-Aminou et al., J Neurochem 67:2599-2608 (1996)) isolated the reaction product (identified by co-migration with AA standard), which was then scraped off the plates and analyzed in a scintillation spectrometer (Beckman). In some experiments, especially those involving ^14C-AA-phosphatidylinositol as substrate, the diacylglycerol-containing band (identified by co-migration of standard) also was scraped and counted in order to measure phospholipase C (PLC) activity.

PC-3M-MM2 cells = experiment: Boyden chamber assay, PC-3M-MM2 cells; type: cell-based, human
Description: In addition, seven human prostate carcinoma cell lines were used (see Table 2). One or two cell lines of medium to high motility (e.g., PC-3M-MM2 and DU145) are first selected. The PC-3M-MM2 cells disperse rapidly in the dish and, like the MAT-Lu cells, never form colonies. Cells are grown according to standard procedures. Large numbers of aliquots of all cancer cell lines arc collected and frozen in order to avoid the use of higher passage numbers in later experiments. As the experimentation progresses, the motility and morphology of the cells is re-checked to avoid distortion of results by changes in phenotype. For experimental use, cells are kept well below confluence. In order to test for potential effects of the growth matrix, cells are grown for selected experiments not only on serum-conditioned tissue culture plastic but also on laminin, collagen, fibronectin or Matrigel (Life Technologies/GIBCO-BRL, Gaitheresberg, Md.; Becton Dickinson/Collaborative Biomedical Products, Bedford Mass.). […] The motility, of all cells is assessed quantitatively using the (long-term) Boyden chamber assay as described in Boyden, J. Exp. Med. 115:453-466 (1962), incorporated herein by reference. […] The relative number of cells moving within 3-6 hours across the membrane from the upper well is counted in the presence or absence of IGF-1 in the lower chamber.

protein kinase C (PKC) = experiment: MARCKS phosphorylation by PKC in isolated GCPs; type: biochemical, rat; conditions: isolated growth cones
Description: FIG. 7A. Thrombin stimulates MARCKS phosphorylation in a 12-LOX-dependent manner. FIG. 7B. 12(S)-HETE stimulates MARCKS phosphorylation by PKC in isolated GCPs. […] Polypeptides were resolved by SDS-PAGE. MARCKS phosphorylation was quantified by phosphorimaging.

Substance: thrombin: potent growth cone repellent; commercially available thrombin (Sigma); rat thrombin in Boyden assays
- time until most growth cones are fully collapsed [1]: 10 to 20 min
- growth cone collapse, agent alone ([1]; TRAP (100 mM), 12(S)-HETE 10^−7 M): most growth cones are fully collapsed
- increase of PLA2 activity (AA release), PE substrate (cPLA2 [2]): 40-50 fold
- time to pseudopod retraction after addition to cells in culture dish (MAT-Lu cells): 5 to 10 min
- effect of agent alone on pseudopod length (MAT-Lu cells; typically 15 min exposure): caused pseudopod shortening in MAT-Lu cells within minutes of administration
- stimulation of cPLA2, PC substrate (cPLA2 [3]): over 100 fold
- stimulation of cPLA2, PE substrate (cPLA2 [3]): about 30 fold
- stimulation of cPLA2, PI substrate (cPLA2 [3]): over 100 fold
- effect on DAG release from PI / phospholipase C (words) (phospholipase C): reduced DAG release rather than stimulating it
- effect on DAG release from PI / phospholipase C (words) (phospholipase C; listed as Thrombin): did not activate phospholipase C in MAT-Lu cells
- effect on cell motility (PC-3M-MM2 cells): potent inhibitor of cell motility
- stimulation of MARCKS and GAP43 phosphorylation (protein kinase C (PKC)): stimulates MARCKS and GAP43 phosphorylation
